# Reference: ChEMBL document CHEMBL1201862, “PubChem BioAssay data set” (2004)
#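 Test compounds were applied to cells in 96-well plates for 48 hours at 5 doses. GI50 = concentration required for 50% inhibition of growth.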 Activity calls are given as the source filed them. No stated cut-off is given here; in the data, active = GI50 up to about 1.1 µM and inactive = higher.
# Legend:
# Assay in all cases: inhibition of tumour cell growth, NCI panel, 48 h
# [1] = system: HL-60
# [2] = system: SK-OV-3
# [3] = system: OVCAR-3
# [4] = system: HT-29
# [5] = system: OVCAR-5
# [6] = system: COLO 205
# [7] = system: UACC-257
# [8] = system: HOP-62
# [9] = system: UO-31
# [10] = system: LOX IMVI
# [11] = system: NCI-H23
# [12] = system: HCT-15
# [13] = system: SF-268
# [14] = system: RXF 393
# [15] = system: HOP-92
# [16] = system: A498
# [17] = system: SK-MEL-2
# [18] = system: MCF7
# [19] = system: SNB-19
# [20] = system: T47D
# [21] = system: MDA-MB-435
# [22] = system: MDA-N
# [23] = system: M14
# [24] = system: U-251
# [25] = system: SK-MEL-28
# [26] = system: Hs-578T
# [27] = system: RPMI-8226
# [28] = system: MDA-MB-231
# [29] = system: NCI-H460
# [30] = system: NCI/ADR-RES
# [31] = system: MOLT-4
# [32] = system: BT-549
# [33] = system: DU-145
# [34] = system: SF-295
# [35] = system: ACHN
# [36] = system: PC-3
# [37] = system: OVCAR-4
# [38] = system: Malme-3M
# [39] = system: NCI-H226
# [40] = system: SW-620
# [41] = system: UACC-62
# [42] = system: SR
# [43] = system: SF-539
# [44] = system: OVCAR-8
# [45] = system: SNB-75
# [46] = system: CAKI-1
# [47] = system: TK-10
# [48] = system: HCT-116
# [49] = system: K562
# [50] = system: IGROV-1
# [51] = system: A549
# [52] = system: SN12C
# [53] = system: SK-MEL-5
# [54] = system: EKVX
# [55] = system: HCC 2998
# [56] = system: 786-0
# [57] = system: NCI-H522
# [58] = system: KM12
# [59] = system: CCRF-CEM
smiles,measurement,setting,value
COc1ccc(C(Nc2ncccn2)c2cc3c(cc2O)OCO3)cc1 (centres undefined),GI50,[1],16.4 µM (inactive)
same,GI50,[2],22.1 µM (inactive)
same,GI50,[3],17.3 µM (inactive)
same,GI50,[4],24.8 µM (inactive)
same,GI50,[5],31.8 µM (inactive)
same,GI50,[6],26.6 µM (inactive)
same,GI50,[7],18.9 µM (inactive)
same,GI50,[8],22.4 µM (inactive)
same,GI50,[9],17.1 µM (inactive)
same,GI50,[10],16.9 µM (inactive)
same,GI50,[11],12.7 µM (inactive)
same,GI50,[12],18.8 µM
same,GI50,[13],17.3 µM (inactive)
same,GI50,[14],17.9 µM (inactive)
same,GI50,[15],37.2 µM (inactive)
same,GI50,[16],46.5 µM (inactive)
same,GI50,[17],20.7 µM (inactive)
same,GI50,[18],23.5 µM (inactive)
same,GI50,[19],17.3 µM (inactive)
same,GI50,[20],13.3 µM (inactive)
same,GI50,[21],19.9 µM (inactive)
same,GI50,[22],18.3 µM (inactive)
same,GI50,[23],20.6 µM (inactive)
same,GI50,[24],15.4 µM (inactive)
same,GI50,[25],22.3 µM (inactive)
same,GI50,[26],23.4 µM (inactive)
same,GI50,[27],22.8 µM (inactive)
same,GI50,[28],21.3 µM (inactive)
same,GI50,[29],20.1 µM (inactive)
same,GI50,[30],30.8 µM (inactive)
same,GI50,[31],26.3 µM (inactive)
same,GI50,[32],23 µM (inactive)
same,GI50,[33],20.5 µM (inactive)
same,GI50,[34],65.8 µM (inactive)
same,GI50,[35],41.8 µM (inactive)
same,GI50,[36],19.5 µM (inactive)
same,GI50,[37],42.8 µM (inactive)
same,GI50,[38],26.1 µM (inactive)
same,GI50,[39],21.7 µM (inactive)
same,GI50,[40],9.42 µM (inactive)
same,GI50,[41],32.4 µM (inactive)
same,GI50,[42],7.14 µM (inactive)
same,GI50,[43],15.2 µM (inactive)
same,GI50,[44],19.2 µM (inactive)
same,GI50,[45],10.2 µM (inactive)
same,GI50,[46],20.3 µM (inactive)
same,GI50,[47],18.6 µM (inactive)
same,GI50,[48],29.4 µM (inactive)
same,GI50,[49],23.1 µM (inactive)
same,GI50,[50],23 µM (inactive)
same,GI50,[51],32.2 µM (inactive)
same,GI50,[52],17.4 µM (inactive)
same,GI50,[53],20.4 µM (inactive)
same,GI50,[54],22.9 µM (inactive)
same,GI50,[55],21.7 µM (inactive)
same,GI50,[56],18 µM (inactive)
same,GI50,[57],16.7 µM (inactive)
same,GI50,[58],17.9 µM (inactive)
COC(=O)c1ccc(/C=C/c2cc(O)ccc2O)cc1,GI50,[1],0.269 µM (active)
same,GI50,[3],1.18 µM (inactive)
same,GI50,[4],30.3 µM (inactive)
same,GI50,[5],5.07 µM (inactive)
same,GI50,[6],4.97 µM (inactive)
same,GI50,[7],6.27 µM (inactive)
same,GI50,[8],27.2 µM (inactive)
same,GI50,[9],1.47 µM (inactive)
same,GI50,[10],2.24 µM (inactive)
same,GI50,[11],4.39 µM (inactive)
same,GI50,[12],3.01 µM
same,GI50,[13],2.15 µM (inactive)
same,GI50,[14],2.25 µM (inactive)
same,GI50,[15],2.44 µM (inactive)
same,GI50,[16],5.15 µM (inactive)
same,GI50,[17],14.3 µM (inactive)
same,GI50,[18],5.14 µM (inactive)
same,GI50,[19],33.3 µM (inactive)
same,GI50,[20],1.6 µM (inactive)
same,GI50,[21],3.21 µM (inactive)
same,GI50,[22],3.44 µM (inactive)
same,GI50,[23],13.1 µM (inactive)
same,GI50,[24],2.51 µM (inactive)
same,GI50,[25],13.9 µM (inactive)
same,GI50,[26],4.95 µM (inactive)
same,GI50,[27],0.333 µM (active)
same,GI50,[59],0.242 µM (active)
same,GI50,[28],2.74 µM (inactive)
same,GI50,[29],8.45 µM (inactive)
same,GI50,[30],2.08 µM (inactive)
same,GI50,[31],0.255 µM (active)
same,GI50,[32],1.11 µM (active)
same,GI50,[33],14.9 µM (inactive)
same,GI50,[34],13.1 µM (inactive)
same,GI50,[35],3.19 µM (inactive)
same,GI50,[36],1.48 µM (inactive)
same,GI50,[37],4.5 µM (inactive)
same,GI50,[38],0.923 µM (active)
same,GI50,[39],12.6 µM (inactive)
same,GI50,[40],3.69 µM (inactive)
same,GI50,[41],2.87 µM (inactive)
same,GI50,[42],0.787 µM (active)
same,GI50,[43],1.6 µM (inactive)
same,GI50,[44],2.67 µM (inactive)
same,GI50,[45],15 µM (inactive)
same,GI50,[46],2.43 µM (inactive)
same,GI50,[47],8.43 µM (inactive)
same,GI50,[48],5.75 µM (inactive)
same,GI50,[49],1.04 µM (active)
same,GI50,[50],2.62 µM (inactive)
same,GI50,[51],19.8 µM (inactive)
same,GI50,[52],2.38 µM (inactive)
same,GI50,[53],3.82 µM (inactive)
same,GI50,[54],2.37 µM (inactive)
same,GI50,[55],20 µM (inactive)
same,GI50,[56],3.05 µM (inactive)
same,GI50,[57],0.194 µM (active)
same,GI50,[58],3.81 µM (inactive)
CC1=C(C(=O)N[C@@H](CC(C)C)C(=O)O)N2C(=O)[C@@H](NC(=O)[C@@H](N)Cc3ccccc3)[C@H]2SC1,GI50,[1],> 100 µM (inactive)
same,GI50,[3],> 100 µM (inactive)
same,GI50,[5],> 100 µM (inactive)
same,GI50,[6],> 100 µM (inactive)
same,GI50,[7],> 100 µM (inactive)
same,GI50,[10],> 100 µM (inactive)
same,GI50,[12],> 100 µM
same,GI50,[13],> 100 µM (inactive)
same,GI50,[14],> 100 µM (inactive)
same,GI50,[15],> 100 µM (inactive)
same,GI50,[16],> 100 µM (inactive)
same,GI50,[17],> 100 µM (inactive)
same,GI50,[18],> 100 µM (inactive)
same,GI50,[19],> 100 µM (inactive)
same,GI50,[20],> 100 µM (inactive)
same,GI50,[21],> 100 µM (inactive)
same,GI50,[22],> 100 µM (inactive)
same,GI50,[23],> 100 µM (inactive)
same,GI50,[24],> 100 µM (inactive)
same,GI50,[25],> 100 µM (inactive)
same,GI50,[26],> 100 µM (inactive)
same,GI50,[27],> 100 µM (inactive)
same,GI50,[59],> 100 µM (inactive)
same,GI50,[28],> 100 µM (inactive)
same,GI50,[29],> 100 µM (inactive)
same,GI50,[30],> 100 µM (inactive)
same,GI50,[31],> 100 µM (inactive)
same,GI50,[32],> 100 µM (inactive)
same,GI50,[33],> 100 µM (inactive)
same,GI50,[34],> 100 µM (inactive)
same,GI50,[35],> 100 µM (inactive)
same,GI50,[36],> 100 µM (inactive)
same,GI50,[37],> 100 µM (inactive)
same,GI50,[38],> 100 µM (inactive)
same,GI50,[39],> 100 µM (inactive)
same,GI50,[40],> 100 µM (inactive)
same,GI50,[41],> 100 µM (inactive)
same,GI50,[42],> 100 µM (inactive)
same,GI50,[43],> 100 µM (inactive)
same,GI50,[44],> 100 µM (inactive)
same,GI50,[45],> 100 µM (inactive)
same,GI50,[46],> 100 µM (inactive)
same,GI50,[47],> 100 µM (inactive)
same,GI50,[49],> 100 µM (inactive)
same,GI50,[50],> 100 µM (inactive)
same,GI50,[51],> 100 µM (inactive)
same,GI50,[52],> 100 µM (inactive)
same,GI50,[53],> 100 µM (inactive)
same,GI50,[54],> 100 µM (inactive)
same,GI50,[55],> 100 µM (inactive)
same,GI50,[56],> 100 µM (inactive)
same,GI50,[57],> 100 µM (inactive)
same,GI50,[58],> 100 µM (inactive)
